From patent US20070037833A1, “Compositions and methods for inhibiting neurodegeneration” (priority 2005, published 2007)

B1: BDNF: brain-derived neurotrophic factor, activates the receptor tyrosine kinase TrkB (protein, UniProt P23560 19-247, looked up)
Neurotrophic factor BDNF …: APMKEANIRGQGGLAYPGVRTHGTLESVNGPKAGSRGLTSLADTFEHVIEELLDEDQKVRPNEENNKDADLYTSRVMLSSQVPLEPPLLFLLEEYKNYLDAANMSMRVRRHSDPARRGELSVCDSISEWVTAADKKTAVDMSGGTVTVLEKVPVSKGQLKQYFYETKCNPMGYTKEGCRGIDKRHWNSQCRTTQSYVRALTMDSKKRIGWRFIRIDTSCVCTLTIKRGR

Assays:
[1] = system: pure motor neurons grown in CT-1; experiment: BDNF-conferred excitotoxic sensitivity of pure motor neurons after cholesterol depletion; format: cell-based; conditions: for excitotoxic cell death: acute BMCD or vehicle followed by BDNF or vehicle, then kainate
Description: (§1) Finally to begin to determine the biological relevance of the lipid raft signaling complex, we asked if their disruption with cholesterol depleting agents would affect the capacity of BDNF to confer excitotoxic sensitivity upon motor neurons. Pure motor neurons were grown in the presence of CT-1 but in the absence of BDNF for 24 hours at which point the cholesterol depleting agent, β-methylcyclodextin (βMCD) or vehicle was added to the cultures. Thirty minutes later, BDNF or vehicle was added to the culture and 3 hours later the excitoticity assay was performed (FIG. 6b). We determined the amount of cholesterol in our pure motor neuron cultures after 30 minutes of βMCD treatment and found an ˜25% reduction in comparison with vehicle treatment (βMCD v. vehicle; 404±31 μg/μg protein versus 550±16 μg/μg protein, n=5 samples, t-test, p<0.001). In terms of cell death, a statistically significant difference between experimental groups was identified by ANOVA (F(5,42)=32.797; P<0.001) and a post hoc analysis (Scheffé with level of significance set at P<0.05) indicated excitotoxic death only occurred in the (+)BDNF/(−)βMCD treatment group (# of motor neurons exposed to vehicle or kainate; 57±7 versus 40±4).

motor neurons = experiment: Cholesterol content of pure motor neuron cultures (Amplex Red Cholesterol Assay); format: cell-based, rat; conditions: after 30 minutes of treatment
Description: Two hundred thousand motor neurons were plated in wells of a 96 well dish and after 24 hrs. treated with βMCD or vehicle. Thirty minutes later cholesterol content was determined using the Amplex® Red Cholesterol Assay kit (Molecular Probes) according to the manufacturers instructions. All determinations were made in quintuplicate and normalized to protein content (determined using Protein Assay kit (Bio-Rad)).
as §1, with “In terms of cell death, a statistically significant difference between experimental groups was identified by ANOVA (F(5,42)=32.797; P<0.001) and a post hoc analysis (Scheffé with level of significance set at P<0.05) indicated excitotoxic death only occurred in the (+)BDNF/(−)βMCD treatment group (# of motor neurons exposed to vehicle or kainate; 57±7 versus 40±4).” left out

ALS patients = conditions: intrathecal 25 μg/day or 150 μg/day versus vehicle, 18 months; cited from earlier work

Row | Molecule | # of motor neurons ([1]; (+)BDNF/(+)βMCD group, exposed to kainate) | # of motor neurons ([1]; (+)BDNF/(+)βMCD group, exposed to vehicle) | # of motor neurons ([1]; (−)BDNF/(+)βMCD group, exposed to kainate) | # of motor neurons ([1]; (−)BDNF/(+)βMCD group, exposed to vehicle) | toxicity to motor neurons ([1]; BMCD alone) | excitotoxic cell death [1] | reduction of cholesterol in comparison with vehicle (motor neurons) [%] | # of motor neurons ([1]; (+)BDNF/(−)βMCD group, exposed to kainate) | # of motor neurons ([1]; (+)BDNF/(−)βMCD group, exposed to vehicle) | survival rate (survival free of ventilatory support) (ALS patients)
1 | β-methylcyclodextin [βMCD] | 51±5 | 58±4 | 60±5 | 60±3 | non-toxic | did not occur | ~25 |  |  | 
2 | B1 |  |  |  |  |  | Excitotoxic cell death occurred |  | 40±4 | 57±7 | lower than in the placebo group
